Measured values from ChEMBL document CHEMBL4130363, “Synthesis and pharmacological evaluation of benzamide derivatives as potent and selective sigma-1 protein ligands” (Eur J Med Chem, 2017).

Key:
[1] = target: T1, Neuropeptide Y receptor type 1 (Homo sapiens) (UniProt P25929); test: Agonist activity at recombinant human NPY1R assessed as induction of cAMP levels at 10 uM by HTRF assay relative to agonist; type: functional
T1 sequence (whole entry): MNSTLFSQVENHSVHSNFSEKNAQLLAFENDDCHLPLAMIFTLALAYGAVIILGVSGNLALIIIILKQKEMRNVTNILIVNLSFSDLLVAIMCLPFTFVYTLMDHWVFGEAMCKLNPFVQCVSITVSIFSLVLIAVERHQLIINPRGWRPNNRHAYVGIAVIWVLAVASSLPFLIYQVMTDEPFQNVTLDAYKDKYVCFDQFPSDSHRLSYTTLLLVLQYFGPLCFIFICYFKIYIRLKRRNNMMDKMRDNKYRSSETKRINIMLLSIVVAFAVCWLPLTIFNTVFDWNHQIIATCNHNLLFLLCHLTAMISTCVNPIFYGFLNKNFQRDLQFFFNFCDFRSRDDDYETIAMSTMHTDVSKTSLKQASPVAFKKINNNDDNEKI

[2] = target: T2, 5-hydroxytryptamine receptor 2C (Homo sapiens) (UniProt P28335); test: Agonist activity at recombinant human 5-HT2C at 10 uM by aequorin reporter based assay relative to agonist; type: functional
T2 sequence (whole entry): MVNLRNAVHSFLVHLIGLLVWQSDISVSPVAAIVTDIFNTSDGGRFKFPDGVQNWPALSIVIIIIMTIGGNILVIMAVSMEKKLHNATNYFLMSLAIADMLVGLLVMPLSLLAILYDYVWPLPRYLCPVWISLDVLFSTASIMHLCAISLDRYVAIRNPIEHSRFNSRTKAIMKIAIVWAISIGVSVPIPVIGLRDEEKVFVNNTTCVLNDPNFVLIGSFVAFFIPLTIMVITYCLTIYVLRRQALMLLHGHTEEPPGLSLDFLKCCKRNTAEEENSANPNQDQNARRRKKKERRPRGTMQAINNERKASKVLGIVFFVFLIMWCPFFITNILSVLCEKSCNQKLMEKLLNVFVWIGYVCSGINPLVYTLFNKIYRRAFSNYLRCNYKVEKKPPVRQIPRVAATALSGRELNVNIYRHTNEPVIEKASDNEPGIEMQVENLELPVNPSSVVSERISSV

[3] = target: Kappa-type opioid receptor (Homo sapiens) (UniProt P41145); test: Antagonist activity at human kappa-type opioid receptor assessed as inhibition of agonist-induced effect at 10 uM by GTPgamma[35S] binding-based assay; type: functional
Sequence of Kappa-type opioid receptor (Homo sapiens) (P41145 whole entry): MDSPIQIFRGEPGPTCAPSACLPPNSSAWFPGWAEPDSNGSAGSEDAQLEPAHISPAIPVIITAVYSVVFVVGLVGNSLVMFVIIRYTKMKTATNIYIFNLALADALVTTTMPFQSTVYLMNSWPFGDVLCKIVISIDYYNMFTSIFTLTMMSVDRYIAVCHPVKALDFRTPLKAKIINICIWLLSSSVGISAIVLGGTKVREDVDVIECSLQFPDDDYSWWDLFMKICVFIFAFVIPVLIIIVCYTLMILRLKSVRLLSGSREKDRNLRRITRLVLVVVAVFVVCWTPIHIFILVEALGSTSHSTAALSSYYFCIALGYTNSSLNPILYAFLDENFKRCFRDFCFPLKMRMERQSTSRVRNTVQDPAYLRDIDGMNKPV

[4] = target: T3, Alpha-1A adrenergic receptor (Homo sapiens) (UniProt P35348); test: Agonist activity at recombinant human alpha-1a adrenergic receptor […] at 10 uM by aequorin reporter based assay relative to agonist; type: functional
T3 sequence (whole entry): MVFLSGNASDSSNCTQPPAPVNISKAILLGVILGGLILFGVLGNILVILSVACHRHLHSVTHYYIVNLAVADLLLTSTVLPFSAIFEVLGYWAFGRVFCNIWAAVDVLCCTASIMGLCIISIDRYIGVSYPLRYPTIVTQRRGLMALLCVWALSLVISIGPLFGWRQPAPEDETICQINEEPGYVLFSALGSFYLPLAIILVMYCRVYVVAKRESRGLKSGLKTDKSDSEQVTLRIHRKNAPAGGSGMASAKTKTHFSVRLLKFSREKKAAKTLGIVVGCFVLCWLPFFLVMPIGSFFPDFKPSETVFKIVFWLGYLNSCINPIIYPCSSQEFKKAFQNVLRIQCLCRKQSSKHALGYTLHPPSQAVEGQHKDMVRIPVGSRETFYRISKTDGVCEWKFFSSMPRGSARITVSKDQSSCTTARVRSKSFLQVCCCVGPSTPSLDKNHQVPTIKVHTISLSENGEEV

[5] = target: T4, Alpha-2A adrenergic receptor (Homo sapiens) (UniProt P08913); test: Agonist activity at recombinant human alpha-2a adrenergic receptor at 10 uM by GTPgamma[35S] binding-based assay relative to agonist; type: functional
T4 sequence (whole entry): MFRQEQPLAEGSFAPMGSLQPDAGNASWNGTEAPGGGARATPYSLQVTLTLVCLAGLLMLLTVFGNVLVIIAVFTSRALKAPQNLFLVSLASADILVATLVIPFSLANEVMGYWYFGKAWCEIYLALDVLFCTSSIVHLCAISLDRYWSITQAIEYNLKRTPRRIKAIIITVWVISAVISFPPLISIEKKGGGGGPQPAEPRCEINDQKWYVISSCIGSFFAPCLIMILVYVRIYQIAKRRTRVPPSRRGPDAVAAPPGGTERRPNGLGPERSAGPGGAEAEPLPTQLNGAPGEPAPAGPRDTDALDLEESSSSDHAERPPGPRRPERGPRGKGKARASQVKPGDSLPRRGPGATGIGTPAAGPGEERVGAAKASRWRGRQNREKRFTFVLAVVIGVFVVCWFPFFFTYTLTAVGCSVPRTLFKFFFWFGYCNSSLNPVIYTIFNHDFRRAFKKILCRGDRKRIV

[6] = target: D(2) dopamine receptor (Homo sapiens) (UniProt P14416); test: Agonist activity at recombinant human dopamine D2L receptor at 10 uM by GTPgamma[35S] binding-based assay relative to agonist
Sequence of D(2) dopamine receptor (Homo sapiens) (P14416 whole entry): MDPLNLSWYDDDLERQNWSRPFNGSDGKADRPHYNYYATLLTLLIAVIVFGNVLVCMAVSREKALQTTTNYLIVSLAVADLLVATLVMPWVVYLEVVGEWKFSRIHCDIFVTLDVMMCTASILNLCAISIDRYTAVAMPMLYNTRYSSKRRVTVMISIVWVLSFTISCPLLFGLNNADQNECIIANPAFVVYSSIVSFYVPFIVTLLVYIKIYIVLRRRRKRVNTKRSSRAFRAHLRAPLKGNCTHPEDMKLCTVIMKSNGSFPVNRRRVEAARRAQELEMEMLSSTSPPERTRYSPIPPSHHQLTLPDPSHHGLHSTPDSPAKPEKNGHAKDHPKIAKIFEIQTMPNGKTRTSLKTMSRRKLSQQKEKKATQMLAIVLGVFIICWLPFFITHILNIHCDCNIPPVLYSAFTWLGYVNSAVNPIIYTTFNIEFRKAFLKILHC

[7] = target: T5, Muscarinic acetylcholine receptor M2 (Homo sapiens) (UniProt P08172); test: Agonist activity at recombinant human muscarinic M2 receptor at 10 uM by GTPgamma[35S] binding-based assay relative to agonist; type: functional
T5 sequence (whole entry): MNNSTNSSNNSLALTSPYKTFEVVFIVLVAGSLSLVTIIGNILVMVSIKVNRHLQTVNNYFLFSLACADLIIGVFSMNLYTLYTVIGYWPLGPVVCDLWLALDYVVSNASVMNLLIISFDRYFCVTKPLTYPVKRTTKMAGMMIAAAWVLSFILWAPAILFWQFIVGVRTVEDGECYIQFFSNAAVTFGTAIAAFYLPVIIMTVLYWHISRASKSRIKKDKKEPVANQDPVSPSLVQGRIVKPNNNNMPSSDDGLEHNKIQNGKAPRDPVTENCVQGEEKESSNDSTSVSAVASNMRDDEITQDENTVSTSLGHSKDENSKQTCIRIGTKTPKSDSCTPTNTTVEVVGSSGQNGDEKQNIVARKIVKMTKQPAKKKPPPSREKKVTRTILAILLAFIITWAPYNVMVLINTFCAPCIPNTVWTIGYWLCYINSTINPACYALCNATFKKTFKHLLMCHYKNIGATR

| Structure (SMILES) | Activity [1] [%] | Activity [2] [%] | inhibition [3] [%] | Activity [4] [%] | Activity [5] [%] | Activity [6] [%] | Activity [7] [%] |
| --- | --- | --- | --- | --- | --- | --- | --- |
| CN(CCNC(=O)c1ccc([N+](=O)[O-])cc1)Cc1ccccc1 | 3 | 13 | 23 | 0 | -1 | -15 | -1 |
| CN(CCNC(=O)c1ccc(C#N)cc1)Cc1ccccc1 | 4 | -1 | 9 | 0 | -1 | -23 | -3 |
| COc1cccc(C(=O)NCCCN(C)Cc2ccccc2)c1 | 0 | 5 | 4 | 0 | 0 | 16 | -1 |
| CN(CCCNC(=O)c1ccc(Cl)cc1)CCc1ccccc1 | -4 | 75 | 26 | 0 | -3 | 25 | -10 |
| CN(CCCNC(=O)c1cccc(Br)c1)Cc1ccccc1 | 1 | -3 | 26 | 0 | -3 | -2 | -11 |

More lines, now with the values ahead:

| Activity [1] [%] | Activity [2] [%] | inhibition [3] [%] | Activity [4] [%] | Activity [5] [%] | Activity [6] [%] | Activity [7] [%] | Structure (SMILES) |
| --- | --- | --- | --- | --- | --- | --- | --- |
| 9 | -7 | 28 | 0 | -2 | 25 | -9 | CN(CCCNC(=O)c1ccc(C(F)(F)F)cc1)Cc1ccccc1 |
| 2 | 12 | 24 | 0 | -2 | -3 | -9 | CN(CCCNC(=O)c1ccc(Cl)cc1)Cc1ccccc1 |
| 2 | 63 | 26 | 0 | 1 | 4 | -9 | CCCc1ccc(C(=O)NCCCN(C)Cc2ccccc2)cc1 |
| 1 | 2 | 21 | 0 | -5 | 20 | -6 | CN(CCCNC(=O)c1ccc([N+](=O)[O-])cc1)Cc1ccccc1 |
| 1 | 5 | 23 | 0 | -1 | -14 | -3 | COc1ccc(C(=O)NCCCN(C)Cc2ccccc2)cc1 |
| -2 | 62 | 40 | 0 | -3 | -2 | -5 | CN(CCNC(=O)c1ccc(Cl)cc1)Cc1ccccc1 |
| 5 | 11 | 22 | 1 | 3 | -1 | -3 | CN(CCCNC(=O)c1ccc(Br)cc1)Cc1ccccc1 |
